# Measurements from patent US5554631A, “5-pyrrolyl-6-halogeno-2-pyridylmethylsulfinyl benzimidazole derivatives” (Il-Yang Pharm. Co., Ltd., priority 1994, dated 1996).
# Counter-ions that a name gives are not always drawn.
# Experiments:
# H^+ /K^+ -ATPase = molecular target: T1, H^+ /K^+ -ATPase (Oryctolagus cuniculus, UniProt P27112); experiment: Inhibition of H+/K+-ATPase enzyme activity in vitro; assay type: biochemical, rabbit; settings: rabbit gastric microsomal H+/K+-ATPase, 5 min pre-incubation at 37° C., 4 mM ATP; read-out: IC50
# T1 construct: The gastric mucous membrane was removed from rabbit; from tissue; host or cells: rabbit gastric mucosa, microsomal fraction (77,000 xg)
# Experimental: The gastric mucous membrane was removed from rabbit and then centrifuged with 77,000 xg using a ultracentrifuge to separate the microsomal fraction which was used as the source of H^+ /K^+ -ATPase enzyme for this test. 60 μg of H^+ /K^+ -ATPase was pre-incubated with the sample (the compound according to the present invention) for 5 minutes at 37° C. and then 4 mM ATP as the substrate and 4 mM Mg^++, 20 mM K^+ as the cofactor were added thereto. Then, the amount of inorganic phosphorus thus produced was determined using a spectrophotometer at 660 nm and converted into the amount of protein according to Lowry method. […]
# gastric juice secretion = experiment: Inhibition of gastric juice secretion, Shay method; assay type: in vivo, SD male rats; settings: for Gastric juice volume / Inhibition rate, gastric juice secretion: intraduodenal; for Gastric juice volume / Inhibition rate, gastric juice secretion / ED50: 5 h; for Inhibition rate, gastric juice secretion: vs normal group; for ED50: Rattus norvegicus
# Experimental: (§1) The specific test methods are as follows.
# (§2) SD male rats (200±20 g) were fasted for 24 hours, except for water, and then anesthesized with ether. The abdomen of rats was incised and then the pylorus was ligated. The test compounds were suspended or dissolved in […] (carboxymethylcellulose) and injected into duodenum. After the abdomen was suctured, the rats were allowed to stand for 5 hours and then sacrificed with ether. The stomach was removed from rats and the gastric juices were collected. The gastric juice was centrifuged with 10,000×g for 10 minutes at 4° C. to remove the precipitate. The amount of gastric juice and acidity were determined using pH 7.0 end point assay with 0.02N NaOH and then the total acid output was calculated.
# acidity = experiment: Inhibition of acidity (total acid output), Shay method; assay type: in vivo, SD male rats; settings: for Volume (inhibition of acidity) / Inhibition rate, acidity: intraduodenal; for Volume (inhibition of acidity) / Inhibition rate, acidity / ED50: 5 h; for Inhibition rate, acidity: vs normal group; for ED50: Rattus norvegicus
# Experimental: as §1, §2
# [1] = test system: gastric and duodenal ulcers; settings: background art; cited from earlier work
# ICR (male, female) mouse = experiment: in vivo; settings: oral; for Number of animals died in day after administration: each of days 0-14
# Experimental: (§3) Five weeks aged ICR (male, female) mouse were pre-bred in the breeding cage for one week and then the animals showing a smooth gain in body weight were randomly selected and used in this test. The amount to be administered to the test animals was established on the basis of the maximum dose of 5,000 mg/kg with the common ratio of 1.5.
# (§4) The test compounds in a powder were suspended in 0.5% methylcellulose and administered per oral using a lml syringe. The other specific conditions for administration are described in the following.
# (§5) In the above test, the control group received only 0.5% methylcellulose.
# (§6) (1) Clinical symptoms and death of test animals
# (§7) The clinical symptoms and death of test animals caused by the test compounds were recorded immediately after administration of the test compounds and during the overall test period.
# in vivo = settings: mouse, in vivo, po
# Experimental: as §3, §4, §5, §6, §7
# [2] = test system: proton pump of H^+, K^+ -ATPase; settings: background art; cited from earlier work
# T1 sequence (P27112 2-1035 limits assumed): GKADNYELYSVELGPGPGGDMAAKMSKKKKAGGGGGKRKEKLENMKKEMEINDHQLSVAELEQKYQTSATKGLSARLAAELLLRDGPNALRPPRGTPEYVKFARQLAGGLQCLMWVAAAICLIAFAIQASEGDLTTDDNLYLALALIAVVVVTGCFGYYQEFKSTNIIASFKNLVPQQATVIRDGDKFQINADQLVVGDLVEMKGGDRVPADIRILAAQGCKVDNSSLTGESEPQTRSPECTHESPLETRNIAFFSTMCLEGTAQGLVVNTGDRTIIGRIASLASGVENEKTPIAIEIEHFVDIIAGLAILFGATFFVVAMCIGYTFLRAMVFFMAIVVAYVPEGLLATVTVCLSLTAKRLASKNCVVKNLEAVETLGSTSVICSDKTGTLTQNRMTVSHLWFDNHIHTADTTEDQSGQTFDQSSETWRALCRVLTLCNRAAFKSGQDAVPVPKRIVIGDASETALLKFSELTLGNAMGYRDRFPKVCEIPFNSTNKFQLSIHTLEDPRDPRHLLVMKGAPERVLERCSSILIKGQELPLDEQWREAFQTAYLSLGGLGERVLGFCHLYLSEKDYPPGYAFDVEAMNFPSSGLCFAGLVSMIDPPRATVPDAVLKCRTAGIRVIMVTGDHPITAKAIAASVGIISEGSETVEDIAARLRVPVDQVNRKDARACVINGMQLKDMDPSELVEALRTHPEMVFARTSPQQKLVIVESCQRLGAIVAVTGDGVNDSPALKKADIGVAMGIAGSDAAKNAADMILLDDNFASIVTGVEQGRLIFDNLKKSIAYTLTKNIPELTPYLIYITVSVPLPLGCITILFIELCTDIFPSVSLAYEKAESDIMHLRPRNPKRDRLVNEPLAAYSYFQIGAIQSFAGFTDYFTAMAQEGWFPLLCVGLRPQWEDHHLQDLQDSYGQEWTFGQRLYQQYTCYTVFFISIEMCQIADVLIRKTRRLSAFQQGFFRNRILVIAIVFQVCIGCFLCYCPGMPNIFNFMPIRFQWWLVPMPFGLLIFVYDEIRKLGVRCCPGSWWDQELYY
# T1 sequence (P18597 whole entry partner): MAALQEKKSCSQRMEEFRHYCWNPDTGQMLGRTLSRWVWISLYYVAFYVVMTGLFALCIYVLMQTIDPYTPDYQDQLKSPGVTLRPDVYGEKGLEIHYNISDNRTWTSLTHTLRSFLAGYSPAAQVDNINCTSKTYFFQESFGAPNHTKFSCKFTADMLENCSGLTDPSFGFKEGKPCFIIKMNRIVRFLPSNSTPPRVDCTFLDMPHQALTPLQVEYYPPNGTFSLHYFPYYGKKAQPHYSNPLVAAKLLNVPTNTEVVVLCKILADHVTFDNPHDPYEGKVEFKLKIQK
structure (smiles),measurement,setting,value
COc1c(C)cnc(C[S+]([O-])c2nc3cc(-n4cccc4)c(F)cc3[nH]2)c1C (stereo not drawn) [Compound 4],IC50,H^+ /K^+ -ATPase,430 µM
COc1ccnc(C[S+]([O-])c2nc3cc(-n4c(C)ccc4C)c(F)cc3[nH]2)c1OC (stereo not drawn) [Compound 19],IC50,H^+ /K^+ -ATPase,8100 µM
COc1ccnc(C[S+]([O-])c2nc3cc(-n4c(C)ccc4C)c(F)cc3[nH]2)c1 (stereo not drawn) [Compound 20],IC50,H^+ /K^+ -ATPase,210 µM
same,Gastric juice volume,"gastric juice secretion; 10 mg/kg, rat",1.41 ± 0.16 ml/100 g BW
same,"Inhibition rate, gastric juice secretion","gastric juice secretion; 10 mg/kg, rat",53.62%
same,Gastric juice volume,"gastric juice secretion; 30 mg/kg, rat",1.06 ± 0.10 ml/100 g BW
same,"Inhibition rate, gastric juice secretion","gastric juice secretion; 30 mg/kg, rat",65.13%
same,Volume (inhibition of acidity),"acidity; 10 mg/kg, rat",18.41 ± 2.27 μEq/hr
same,"Inhibition rate, acidity","acidity; 10 mg/kg, rat",74.23%
same,Volume (inhibition of acidity),"acidity; 30 mg/kg, rat",11.31 ± 1.91 μEq/hr
same,"Inhibition rate, acidity","acidity; 30 mg/kg, rat",84.17%
"COc1ccc2[nH]c([S+]([O-])Cc3ncc(C)c(OC)c3C)nc2c1 (stereo not drawn) [Omeprazole, 5-methoxy-2-[[(4-methoxy-3,5-dimethyl-2-pyridinyl)methyl]sulfinyl]-1H-benzimidazole]",IC50,H^+ /K^+ -ATPase,~160 µM
same,Anti-ulcer effect over conventional H2-receptor antagonists,[1],superior effect over conventional H2 -receptor antagonists
same,Duration compared with conventional anti-ulcer agents,[1],prolonged duration in comparison with conventional anti-ulcer agents
same,Acute toxicity (in words),"ICR (male, female) mouse; clinical symptoms, death and autopsy results, mouse",very low as in Omeprazole
same,LD50,"ICR (male, female) mouse; female mouse","> 5,000.0 mg/kg BW"
same,Number of animals died in day after administration,"ICR (male, female) mouse; female mouse, 987 mg/kg",0
same,Number of animals died in day after administration,"ICR (male, female) mouse; female mouse, 1481 mg/kg",0
same,Number of animals died in day after administration,"ICR (male, female) mouse; female mouse, 2222 mg/kg",0
same,Number of animals died in day after administration,"ICR (male, female) mouse; female mouse, 3333 mg/kg",0
same,Number of animals died in day after administration,"ICR (male, female) mouse; female mouse, 5000 mg/kg",0
same,Clinical symptoms,"ICR (male, female) mouse; male and female, maximum administration amount of 5,000 mg per kg",No specific abnormal clinical symptoms were observed
same,LD50,"ICR (male, female) mouse; male mouse","> 5,000.0 mg/kg BW"
same,Number of animals died in day after administration,"ICR (male, female) mouse; male mouse, 987 mg/kg",0
same,Number of animals died in day after administration,"ICR (male, female) mouse; male mouse, 1481 mg/kg",0
same,Number of animals died in day after administration,"ICR (male, female) mouse; male mouse, 2222 mg/kg",0
same,Number of animals died in day after administration,"ICR (male, female) mouse; male mouse, 3333 mg/kg",0
same,Number of animals died in day after administration,"ICR (male, female) mouse; male mouse, 5000 mg/kg",0
same,Visual autopsy view,"ICR (male, female) mouse; survived animals",No specific abnormal autopsy view was observed
same,LD50,in vivo,> 5000 mg/kg
same,Acting mechanism,[2],specific proton pump inhibitor
same,Gastric juice volume,"gastric juice secretion; 10 mg/kg, rat",1.49 ± 0.18 ml/100 g BW
same,"Inhibition rate, gastric juice secretion","gastric juice secretion; 10 mg/kg, rat",54.29%
same,ED50,gastric juice secretion,8.5 mg/kg
same,Volume (inhibition of acidity),"acidity; 10 mg/kg, rat",9.91 ± 4.20 μEq/hr
same,"Inhibition rate, acidity","acidity; 10 mg/kg, rat",82.89%
same,ED50,acidity,3.73 mg/kg
Cc1ccc(C)n1-c1cc2nc([S+]([O-])Cc3ccccn3)[nH]c2cc1F (stereo not drawn) [Compound 21],IC50,H^+ /K^+ -ATPase,7600 µM
Cc1cnc(C[S+]([O-])c2nc3cc(-n4c(C)ccc4C)c(F)cc3[nH]2)c(C)c1OCC(F)(F)F (stereo not drawn) [Compound 22],IC50,H^+ /K^+ -ATPase,390 µM
"COc1ccnc(C[S+]([O-])c2nc3cc(-n4cccc4)c(F)cc3[nH]2)c1C (stereo not drawn) [Compound 24, 2-[[(4-methoxy-3-methyl)-2-pyridinyl]methylsulfinyl]-5-(1H-pyrrol-1-yl)-6-fluoro-1H-benzimidazole sodium salt]",IC50,H^+ /K^+ -ATPase,5.6 µM
COc1c(C)cnc(C[S+]([O-])c2nc3cc(-n4c(C)ccc4C)c(F)cc3[nH]2)c1C (stereo not drawn) [Compound 15],IC50,H^+ /K^+ -ATPase,50 µM
same,Gastric juice volume,"gastric juice secretion; 10 mg/kg, rat",1.81 ± 0.19 ml/100 g BW
same,"Inhibition rate, gastric juice secretion","gastric juice secretion; 10 mg/kg, rat",33.70%
same,Gastric juice volume,"gastric juice secretion; 30 mg/kg, rat",1.46 ± 0.13 ml/100 g BW
same,"Inhibition rate, gastric juice secretion","gastric juice secretion; 30 mg/kg, rat",46.52%
same,Volume (inhibition of acidity),"acidity; 10 mg/kg, rat",26.61 ± 5.27 μEq/hr
same,"Inhibition rate, acidity","acidity; 10 mg/kg, rat",51.81%
same,Volume (inhibition of acidity),"acidity; 30 mg/kg, rat",12.74 ± 1.80 μEq/hr
same,"Inhibition rate, acidity","acidity; 30 mg/kg, rat",76.93%
COc1ccnc(C[S+]([O-])c2nc3cc(-n4cccc4)c(F)cc3[nH]2)c1OC (stereo not drawn) [Compound 7],IC50,H^+ /K^+ -ATPase,290 µM
Cc1c(OCC(F)(F)C(F)(F)F)ccnc1C[S+]([O-])c1nc2cc(-n3cccc3)c(F)cc2[nH]1 (stereo not drawn) [Compound 12],IC50,H^+ /K^+ -ATPase,150 µM
"COc1ccnc(C[S+]([O-])c2nc3cc(-n4c(C)ccc4C)c(F)cc3[nH]2)c1C (stereo not drawn) [Compound 16, 2-[[(4-methoxy-3-methyl)-2-pyridinyl]methylsulfinyl]-5-(1H-2,5-dimethylpyrrol-1-yl)-6-fluoro-1H-benzimidazole]",IC50,H^+ /K^+ -ATPase,12 µM
same,Gastric juice volume,"gastric juice secretion; 3 mg/kg, rat",1.92 ± 0.14 ml/100 g BW
same,"Inhibition rate, gastric juice secretion","gastric juice secretion; 3 mg/kg, rat",44.35%
same,Gastric juice volume,"gastric juice secretion; 10 mg/kg, rat",1.35 ± 0.15 ml/100 g BW
same,"Inhibition rate, gastric juice secretion","gastric juice secretion; 10 mg/kg, rat",60.87%
same,Gastric juice volume,"gastric juice secretion; 30 mg/kg, rat",0.98 ± 0.19 ml/100 g BW
same,"Inhibition rate, gastric juice secretion","gastric juice secretion; 30 mg/kg, rat",71.59%
same,ED50,gastric juice secretion,4.53 mg/kg
same,Inhibition of gastric juice secretion (in words),gastric juice secretion; rat,very strong inhibition of gastric juice secretion
same,Volume (inhibition of acidity),"acidity; 3 mg/kg, rat",25.65 ± 6.86 μEq/hr
same,"Inhibition rate, acidity","acidity; 3 mg/kg, rat",64.68%
same,Volume (inhibition of acidity),"acidity; 10 mg/kg, rat",10.08 ± 3.71 μEq/hr
same,"Inhibition rate, acidity","acidity; 10 mg/kg, rat",86.12%
same,Volume (inhibition of acidity),"acidity; 30 mg/kg, rat",1.75 ± 1.06 μEq/hr
same,"Inhibition rate, acidity","acidity; 30 mg/kg, rat",97.59%
same,ED50,acidity,1.85 mg/kg
same,Acidity lowering effect (in words),acidity; rat,high acidity lowering effect
COc1cc(C[S+]([O-])c2nc3cc(-n4cccc4)c(F)cc3[nH]2)ncc1C (stereo not drawn) [Compound 3],IC50,H^+ /K^+ -ATPase,2000 µM
